± gives the expanded uncertainty stated by the source.
Conditions: Liquid

CCC(O)CO (centres undefined) [1,2-butanediol]
Conditions | vapor or sublimation pressure [kPa]
372.06 K | 1.89 ± 0.08
382.61 K | 3.33 ± 0.08
390.52 K | 4.96 ± 0.09
395.55 K | 6.36 ± 0.09
399.56 K | 7.66 ± 0.09
402.61 K | 8.81 ± 0.09
405.13 K | 9.9 ± 0.09
405.42 K | 10 ± 0.1
408.5 K | 11.39 ± 0.09
413.34 K | 14.09 ± 0.09
418.29 K | 17.27 ± 0.1
421.49 K | 19.63 ± 0.1
424.91 K | 22.54 ± 0.1
427.57 K | 25.06 ± 0.11
429.92 K | 27.24 ± 0.11
432.76 K | 30.39 ± 0.12
435.37 K | 33.36 ± 0.12
438.52 K | 37.3 ± 0.13
439.97 K | 39.3 ± 0.13
441.78 K | 41.9 ± 0.13
443.55 K | 44.75 ± 0.14

OCCO [1,2-ethanediol]
Conditions | vapor or sublimation pressure [kPa]
386.15 K | 3.92 ± 0.08
389.12 K | 4.51 ± 0.08
389.95 K | 4.78 ± 0.08
390.75 K | 4.89 ± 0.08
395.25 K | 6.08 ± 0.09
400.78 K | 7.87 ± 0.09
402.15 K | 8.37 ± 0.09
405.85 K | 9.85 ± 0.09
406.09 K | 10 ± 0.095
406.25 K | 10.02 ± 0.09
409.3 K | 11.42 ± 0.09
411.15 K | 12.41 ± 0.09
411.85 K | 12.85 ± 0.09
413.85 K | 13.85 ± 0.09
416.45 K | 15.37 ± 0.09

CC(O)CO (centres undefined) [1,2-propanediol]
Conditions | vapor or sublimation pressure [kPa]
398.23 K, Ebulliometric method (Recirculating still) | 10 ± 0.095

CC(O)CCO (centres undefined) [1,3-butanediol]
Conditions | vapor or sublimation pressure [kPa]
387.75 K | 2.43 ± 0.08
395.13 K | 3.6 ± 0.08
402.05 K | 5.03 ± 0.08
406.61 K | 6.26 ± 0.09
411.11 K | 7.72 ± 0.09
413.41 K | 8.54 ± 0.09
416.91 K | 10 ± 0.095
418.03 K | 10.48 ± 0.09
420.85 K | 11.87 ± 0.09
422.04 K | 12.54 ± 0.09
425.8 K | 14.63 ± 0.09
427.74 K | 15.84 ± 0.09
429.75 K | 17.09 ± 0.09
433.71 K | 19.96 ± 0.09
436.29 K | 22.24 ± 0.1
439.65 K | 25.3 ± 0.1
442.45 K | 28.15 ± 0.1
444.75 K | 30.78 ± 0.1
447.01 K | 33.36 ± 0.1
449.8 K | 36.78 ± 0.11
451.7 K | 39.45 ± 0.11
453.1 K | 41.39 ± 0.11

— the NIST ThermoML archive (doi:10.1021/je400082c)
